In the supplement of paper PMC10307832:

Tests used:
Assay in all cases: relative viability (nuclei count vs DMSO), 5 days (fraction); higher = more cells survive
Midostaurin + Foretinib = compound: CO[C@@H]1[C@H](N(C)C(=O)c2ccccc2)C[C@H]2O[C@]1(C)n1c3ccccc3c3c4c(c5c6ccccc6n2c5c31)C(=O)NC4 [Midostaurin] + COc1cc2c(Oc3ccc(NC(=O)C4(C(=O)Nc5ccc(F)cc5)CC4)cc3F)ccnc2cc1OCCCN1CCOCC1 [Foretinib] (partner 0.25 µM)
Summary of the method: (§1)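 Lung cancer cell lines in 1536-well plates got either a single drug or a fixed anchor-drug dose together with five library-drug doses (not always all listed) in √10 steps, by pin tool, on the day after seeding. Nuclei were counted after 5 days, and relative viability is the treated-to-vehicle ratio of nuclei counts. Values are medians of duplicate plates.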

[1] = compound: COc1cc(-c2nn([C@H]3CC[C@H](N4CCN(C(C)=O)CC4)CC3)c3ncnc(N)c23)ccc1NC(=O)c1cc2ccccc2n1C + NC(=O)Nc1cc(-c2cccc(F)c2)sc1C(=O)N[C@H]1CCCNC1 [AZD7762] (partner 0.2 µM)
Summary of the method: as §1

Midostaurin + Pictilisib = compound: CO[C@@H]1[C@H](N(C)C(=O)c2ccccc2)C[C@H]2O[C@]1(C)n1c3ccccc3c3c4c(c5c6ccccc6n2c5c31)C(=O)NC4 [Midostaurin] + CS(=O)(=O)N1CCN(Cc2cc3nc(-c4cccc5[nH]ncc45)nc(N4CCOCC4)c3s2)CC1 [Pictilisib] (partner 1 µM)
Summary of the method: as §1

Midostaurin + Vorinostat = compound: CO[C@@H]1[C@H](N(C)C(=O)c2ccccc2)C[C@H]2O[C@]1(C)n1c3ccccc3c3c4c(c5c6ccccc6n2c5c31)C(=O)NC4 [Midostaurin] + O=C(CCCCCCC(=O)Nc1ccccc1)NO [Vorinostat] (partner 1 µM)
Summary of the method: as §1

[2] = compound: COc1cc(-c2nn([C@H]3CC[C@H](N4CCN(C(C)=O)CC4)CC3)c3ncnc(N)c23)ccc1NC(=O)c1cc2ccccc2n1C + CC(=O)Nc1cccc(-n2c(=O)n(C3CC3)c(=O)c3c(Nc4ccc(I)cc4F)n(C)c(=O)c(C)c32)c1 [Trametinib] (partner 0.02 µM)
Summary of the method: as §1

| Cell Line | relative viability (Midostaurin + Foretinib; first compound 0.01 µM) | relative viability (Midostaurin + Foretinib; first compound 0.03162 µM) | relative viability (Midostaurin + Foretinib; first compound 0.1 µM) | relative viability (Midostaurin + Foretinib; first compound 0.3162 µM) | relative viability ([1]; first compound 0.0128 µM) | relative viability ([1]; first compound 0.04048 µM) | relative viability ([1]; first compound 0.128 µM) | relative viability ([1]; first compound 1.28 µM) | relative viability (Midostaurin + Pictilisib; first compound 0.01 µM) | relative viability (Midostaurin + Pictilisib; first compound 0.03162 µM) | relative viability (Midostaurin + Pictilisib; first compound 0.1 µM) | relative viability (Midostaurin + Pictilisib; first compound 0.3162 µM) | relative viability (Midostaurin + Vorinostat; first compound 0.01 µM) | relative viability (Midostaurin + Vorinostat; first compound 0.03162 µM) | relative viability (Midostaurin + Vorinostat; first compound 0.1 µM) | relative viability (Midostaurin + Vorinostat; first compound 0.3162 µM) | relative viability ([2]; first compound 0.0128 µM) | relative viability ([2]; first compound 0.04048 µM) | relative viability ([2]; first compound 0.128 µM) | relative viability ([2]; first compound 1.28 µM) |
| --- | --- | --- | --- | --- | --- | --- | --- | --- | --- | --- | --- | --- | --- | --- | --- | --- | --- | --- | --- | --- |
| LXF-289 | 0.967 | 0.941 | 0.897 | 0.988 | 1.29 | 0.964 | 1.04 | 1.14 | 0.812 | 0.766 | 0.764 | 0.598 | 0.772 | 0.734 | 0.756 | 0.689 | 0.78 | 0.468 | 0.692 | 0.811 |
| NCI-H23 | 0.685 | 1.23 | 0.648 | 0.531 | 0.268 | 0.199 | 0.261 | 0.199 | 0.448 | 0.402 | 0.439 | 0.326 | 0.514 | 0.68 | 0.54 | 0.243 | 0.405 | 0.25 | 0.281 | 0.226 |
| NCI-H322M | 1.04 | 0.923 | 1.07 | 1.14 | 0.496 | 0.599 | 0.536 | 0.444 | 0.52 | 0.493 | 0.5 | 0.594 | 0.877 | 0.849 | 0.994 | 1.28 | 0.453 | 0.489 | 0.491 | 0.463 |
| NCI-H358 | 0.821 | 0.784 | 0.706 | 0.662 | 0.496 | 0.5 | 0.444 | 0.225 | 0.437 | 0.222 | 0.308 | 0.432 | 0.625 | 0.536 | 0.391 | 0.197 | 0.153 | 0.125 | 0.131 | 0.115 |
| NCI-H441 | 0.808 | 0.848 | 0.858 | 0.693 | 1.21 | 1.01 | 1.12 | 0.717 | 0.496 | 0.434 | 0.488 | 0.512 | 0.846 | 0.801 | 0.801 | 0.585 | 0.438 | 0.463 | 0.407 | 0.336 |
| NCI-H460 | 1.02 | 0.932 | 1 | 0.95 | 0.618 | 0.73 | 0.603 | 0.579 | 0.388 | 0.296 | 0.346 | 0.417 | 0.697 | 0.578 | 0.65 | 0.115 | 0.111 | 0.0655 | 0.148 | 0.058 |
| NCI-H596 | 0.816 | 0.969 | 0.723 | 0.896 | 1.55 | 1.15 | 1.09 | 0.851 | 0.376 | 0.435 | 0.435 | 0.424 | 0.554 | 0.645 | 0.625 | 0.877 | 0.915 | 0.8 | 0.88 | 0.554 |
